Entries after “also recorded” stand apart in the source; their conditions may differ.
Key:
[1] = system: P. berghei sporozoites; test: In vivo liver stage assay (mouse liver parasite load by real-time PCR); settings: for effect on parasite growth in mice (in words): dose not given; for inhibitory effect on parasite proliferation in mice (in words): two doses 24 hours apart; for side effects in the mice: after two doses
Protocol: Approximately 10,000 sporozoites were inoculated by tail vein injection and mice were sacrificed 40 hours later, livers were harvested, placed in RNAzol and parasite levels determined by realtime PCR from cDNA from reverse transcription. Relative fluorescent units were compared to control to determine percent inhibition. Cethromycin (CET) was administered only once while the other drugs were given twice 24 hours apart from each dose. […] Error is standard error of mean of three mice with real time PCR performed in duplicate for transcript levels in each mouse.
Mice were kept in Johns Hopkins Bloomberg School of Public Health mouse facility according to the ACUC animal protocol number MO09H401. Six week old C57BL/6 mice weighing about 20-22 g were divided into groups of three. 12,000 P. berghei sporozoites in a 200 μL volume were injected into mice through tail veins. Two hours after injection, different dilutions of drugs in 100-200 μL volumes were delivered to mice by oral gavage using a plastic feeding tube. A second dose of drugs was given 24 hours after the first one to the mice that were on a daily dosing regimen. Approximately 40 hours post-infection, mice infected with P. berghei sporozoites were anesthetized by inhaling Metofane® and sacrificed for harvesting whole livers. Each mouse liver was immediately put into 10 mL of Trizol® Reagent and fully homogenized. After RNA isolation, the RNA was diluted to 100 ng/mL for reverse-transcription reactions. For a 30 μL reaction, the components were set up as: 3.5 μL of nuclease-free water, 3 μL of 10× Buffer II and 10 mM dNTPs, 6 μL of MgCl2 solution, 1.5 μL of 50 μM Random Hexamers, RNase Inhibitor and MuLV Reverse Transcriptase, 10 μL of RNA sample. cDNA products were stored at −20° C. For a 10 μL real-time quantitative PCR, the components were set up as: 0.2 μL of 10 μM forward and reverse primer 18s P. berghei, 5 μL of 2×SYBR Green PCR Master Mix, 1.6 μL of nuclease-free water, and 3 μL of cDNA sample. All test subjects were done in duplicates including positive and negative controls. When real-time PCR was finished, all data were baselined and normalized to the housekeeping gene before further analysis. The specific sequences of primers (The Core DNA Analysis Facility—JHU, Baltimore, Md.) were: 5′-[…]-3′ (SEQ ID NO: 1) and 5′-[…]-3′(SEQ ID NO: 2) for P. berghei ANKA 18s and 5′-[…]1TAGC-3′ (SEQ ID NO: 3) and 5′-[…]-3′ (SEQ ID NO: 4) for mouse HPRT.

[2] = over 5,000 humans, single day dosing; cited from earlier work
[3] = system: P. berghei sporozoites; test: In vitro malaria liver stage assay (infected Hepa1-6 cells counted by anti-HSP70 immunofluorescence); format: cell-based, Plasmodium berghei; settings: for reduction of parasite multiplication / growth in vitro: 10 μM
Protocol: 3A. […] Error is standard error of the mean of duplicate wells performed in biologic replicate. 3B. […] 50,000 Hepa1-6 cells were seeded in each well 24 hours prior to infection with 50,000 P. berghei sporozoites. The 2E6 anti-HSP70 antibody was used for immunofluorescent numeration of infected cells.
Drugs were purchased from either Sigma or Ambinter. In each chamber of 8-well LabTek tissue culture slides, 50,000 mouse hepatoma cells, Hepa1-6, were seeded one day before infection. Cells were normally cultured in DMEM supplemented with 10% FBS, 1× L-glutamine and 1× Pen-Strep at 37° C. and 5% CO2. Once incubated with P. berghei sporozoites, the culture medium supplement was changed to 2.5% FBS, 1× L-glutamine and 2× Pen-Strep. Before treatment with drugs, the cells were washed four times with DMEM containing 10× Pen-Strep and 5 ug/mL fungicide. After 24 hours, fresh culture medium containing drugs was added to each chamber. Approximately 42 hours post-infection, the growth medium was removed and 100% cold methanol was added for 15 minutes to fix the cells. After washing with sterile PBS, cells were incubated in PBS with 5% FBS for blocking. Then 2E6 anti-HSP70 antibody was diluted to 10 μg/mL in PBS with 5% FBS and added in a 200 μL volume to cells. One hour later, cells were washed with PBS and incubated with 10 μg/mL Alexafour 594 anti-mouse secondary antibody. In order to visualize hepatocytes, nuclear counterstain DAPI was incubated with cells for 5 minutes and then washed off. The plastic chambers and silicone gasket were removed and slide was fully dried before mounted and sealed with cover slides. When preparation was complete, slide was taken to the fluorescence microscope for examination. Representative areas were randomly selected from each chamber and the numbers of infected cells were counted for a similar number of microscopic fields. The level of inhibition was determined by comparing the average of each chamber containing treated cells with that of the controls.
Five compounds were procured while cethromycin was synthesized. Cethromycin was directly synthesized from erythromycin by substituting the cladinose sugar at C3 with a keto-group, attaching a cyclic carbamate group at C11-C12, and tethering the quinoline moiety to the C6 alcohol. We used the in vitro P. berghei ANKA model on mouse hepatoma cells, Hepa1-6. […] Quinoline, erythromycin and their combination were also tested to investigate the role the quinoline plays in the antimalarial activity of cethromycin. […] Due to limited synthesized amounts of cethromycin, only one dose was given to mice while other drugs and compounds were administered twice.

[4] = system: Plasmodium; settings: reference molecules of the training set; read-out: liver stage inhibition; cited from earlier work

SMILES	effect on parasite growth in mice (in words) ([1]; oral gavage)	parasite inhibition in vitro (in words) ([3]; Hepa1-6 cells)	inhibitory effect on parasite proliferation in mice (in words) ([1]; 50 mg/kg)	side effects in the mice ([1]; 50 mg/kg)	further results
CC[C@H]1OC(=O)[C@H](C)C(=O)[C@H](C)[C@@H](O[C@@H]2O[C@H](C)C[C@H](N(C)C)[C@H]2O)[C@@](C)(OC/C=C/c2cnc3ccccc3c2)C[C@@H](C)C(=O)[C@H](C)[C@H]2NC(=O)O[C@@]21C [Cethromycin, (1R,2R,4R,6S,7R,8R,10R,13R,14S)-7-[(2S,3R,4S,6R)-4-(dimethylamino)-3-hydroxy-6-methyloxan-2-yl]oxy-13-ethyl-2,4,6,8,10,14-hexamethyl-6-[(E)-3-quinolin-3-ylprop-2-enoxy]-12,15-dioxa-17-azabicyclo[12.3.0]heptadecane-3,9,11,16-tetrone]	active	measurable inhibitory effect; also recorded: active	–	–	inhibition of liver parasites in mice ([1]; 12 mg/kg, oral gavage): about 16%; reduction of parasite load in mouse liver ([1]; 50 mg/kg, oral gavage, one dose, liver 40 hours post-infection): 60%; effect on parasite load in mice (in words) ([1]; cethromycin 12 mg/kg): only partially effective; safety in humans [2]: used safely; inhibition of liver stage malaria in vitro (reduction of parasite growth) ([3]; 20 μM, Hepa1-6 cells): 54%; inhibition at 20 µM ([3]; Plasmodium berghei, Hepa1-6, 20 μM, Hepa1-6 cells, read-out: inhibition of liver stage malaria in vitro (reduction of parasite growth)): 52%
O=C(/C=C/c1ccc(Cl)cc1Cl)Nc1cc(S(=O)(=O)N2CCCCC2)ccc1Cl [T0510-7064, (E)-N-(2-chloro-5-piperidin-1-ylsulfonylphenyl)-3-(2,4-dichlorophenyl)prop-2-enamide]	–	measurable inhibitory effect	significant inhibitory effect	without causing any notable side effects	reduction of parasite multiplication / growth in vitro ([3]; Hepa1-6 cells): 54%
CC[C@@]1([C@@H]2O[C@@H]([C@H]3O[C@@](O)(CO)[C@H](C)C[C@@H]3C)C[C@@H]2C)CC[C@H]([C@]2(C)CC[C@]3(C[C@H](O)[C@@H](C)[C@@H]([C@@H](C)[C@@H](OC)[C@H](C)C(=O)O)O3)O2)O1 [monensin]	–	–	–	–	IC50 [4]: 1 pM
CCN(CC)S(=O)(=O)c1cccc(-c2nnc(SC(C)C(=O)Nc3ccc(C)c(S(=O)(=O)N(CC)CC)c3)n2Cc2ccccc2)c1 (stereo not drawn) [T5531873, 2-[[4-benzyl-5-[3-(diethylsulfamoyl)phenyl]-1,2,4-triazol-3-yl]sulfanyl]-N-[3-(diethylsulfamoyl)-4-methylphenyl]propanamide]	–	measurable inhibitory effect	significant inhibitory effect	without causing any notable side effects	reduction of parasite multiplication / growth in vitro ([3]; Hepa1-6 cells): over 95%; inhibition of liver stage malaria in vitro ([3]; FIG. 3, concentration not given): ~95%
CC[C@H]1OC(=O)[C@H](C)[C@@H](O[C@H]2C[C@@](C)(OC)[C@@H](O)[C@H](C)O2)[C@H](C)[C@@H](O[C@@H]2O[C@H](C)C[C@H](N(C)C)[C@H]2O)[C@](C)(O)C[C@@H](C)C(=O)[C@H](C)[C@@H](O)[C@]1(C)O [erythromycin]	only marginal inhibitory effect; also recorded: no activity	Neither quinoline, nor erythromycin, nor their combination showed any parasite inhibition; also recorded: inactive; also recorded: no activity	–	–	–
O=C(COC(=O)c1cccnc1SCC(=O)Nc1cc(S(=O)(=O)N2CCOCC2)ccc1Cl)Nc1cc(S(=O)(=O)N2CCOCC2)ccc1Cl [T0507-9950, [2-(2-chloro-5-morpholin-4-ylsulfonylanilino)-2-oxoethyl] 2-[2-(2-chloro-5-morpholin-4-ylsulfonylanilino)-2-oxoethyl]sulfanylpyridine-3-carboxylate]	–	measurable inhibitory effect	significant inhibitory effect	without causing any notable side effects	–
c1ccc2ncccc2c1 [quinoline]	only marginal inhibitory effect; also recorded: no activity	Neither quinoline, nor erythromycin, nor their combination showed any parasite inhibition; also recorded: inactive; also recorded: no activity	–	–	effect on parasite growth in mice (in words) ([1]; oral gavage, listed as quinolone): only marginal effect
COc1cc(NC(C)CCCN)c2ncccc2c1 (stereo not drawn) [primaquine]	–	–	–	–	inhibition of liver parasites in mice ([1]; primaquine 15 mg/kg, oral gavage): 83%
